Counter-ions that a name gives are not always drawn.
Tests used:
Assay type in all cases: binding
[1] = target: T1, Recombinant human integrin αVβ5 (Homo sapiens, UniProt P06756+P18084); assay: Solid Phase Receptor Assay (SPRA) for αVβ5 function; conditions: plate-bound human vitronectin
T1 construct: purchased R&D Systems 2528-AV
Procedure: D. Solid Phase Receptor Assay (SPRA) for αVβ5 Function
(§1) Wells were washed 3 times with 150 μL TBS+ and then 150 μL of blocking buffer (TBS+ with 1% bovine serum albumin, Sigma A7906) was added. The plate was incubated for 1 hr at 37° C. and then washed 3× with TBS+ buffer. […] Compounds were diluted to 20 μM and then 1 μL was added to each well of the plate according to a standard template with each sample repeated in triplicate. After incubation for two hours at room temperature, the plate was washed 3× with 150 μL of TBS+ buffer. To each well, 50 μl of biotinylated anti-αV antibody (R&D Systems, BAF1219) at 0.5 μg/mL in TBS+/0.1% BSA at 0.5 μg/mL were added and the plate covered and incubated for 1 hr at room temperature. After washing the plate 3× with 150 μL of TBS+ buffer, 50 μL of streptavidin-conjugated horseradish peroxidase (R&D Systems, DY998) diluted in TBS+ blocking buffer were added to the wells and the plate incubated for 20 min at room temperature. The plate was washed 3× with TBS+ buffer followed by 50 μL of TMB substrate (Sigma T4444) added to each well in the dark and the plate incubated for 5 min at room temperature. 25 μL of 1.0 M phosphoric acid was added as a stop solution and the plates were read at 450 nm using a Spectramax plate reader.

[2] = target: T2, Recombinant human integrin αVβ6 (Homo sapiens, UniProt P06756+P18564); assay: Solid Phase Receptor Assay (SPRA) for αVβ6 function; conditions: plate-bound human LAP
T2 construct: purchased R&D Systems 3817-AV
T2 sequence (P06756 31-992 limits assumed): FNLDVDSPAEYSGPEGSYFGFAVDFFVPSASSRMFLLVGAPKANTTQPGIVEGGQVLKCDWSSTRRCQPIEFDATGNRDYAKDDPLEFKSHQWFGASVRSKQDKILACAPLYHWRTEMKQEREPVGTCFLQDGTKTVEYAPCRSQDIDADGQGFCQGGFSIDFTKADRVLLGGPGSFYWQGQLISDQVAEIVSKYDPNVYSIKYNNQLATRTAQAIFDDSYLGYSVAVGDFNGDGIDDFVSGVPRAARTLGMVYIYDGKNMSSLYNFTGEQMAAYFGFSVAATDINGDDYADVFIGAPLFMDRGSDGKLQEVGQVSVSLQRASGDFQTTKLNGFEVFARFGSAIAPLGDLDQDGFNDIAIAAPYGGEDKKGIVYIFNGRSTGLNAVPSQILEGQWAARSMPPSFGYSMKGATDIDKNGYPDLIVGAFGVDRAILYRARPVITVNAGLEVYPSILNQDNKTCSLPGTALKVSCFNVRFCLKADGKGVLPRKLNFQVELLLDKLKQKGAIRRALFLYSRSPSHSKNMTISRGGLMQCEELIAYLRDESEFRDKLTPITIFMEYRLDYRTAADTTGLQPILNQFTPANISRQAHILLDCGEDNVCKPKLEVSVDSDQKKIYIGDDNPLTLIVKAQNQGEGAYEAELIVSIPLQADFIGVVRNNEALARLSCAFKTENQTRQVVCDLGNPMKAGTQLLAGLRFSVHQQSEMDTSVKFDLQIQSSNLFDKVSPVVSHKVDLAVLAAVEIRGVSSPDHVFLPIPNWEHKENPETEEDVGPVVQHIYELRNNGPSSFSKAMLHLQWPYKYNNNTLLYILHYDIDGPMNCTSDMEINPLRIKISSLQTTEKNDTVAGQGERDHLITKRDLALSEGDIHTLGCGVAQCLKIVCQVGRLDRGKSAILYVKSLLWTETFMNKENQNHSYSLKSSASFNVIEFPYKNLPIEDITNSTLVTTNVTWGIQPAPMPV
T2 sequence (P18564 22-707 limits assumed): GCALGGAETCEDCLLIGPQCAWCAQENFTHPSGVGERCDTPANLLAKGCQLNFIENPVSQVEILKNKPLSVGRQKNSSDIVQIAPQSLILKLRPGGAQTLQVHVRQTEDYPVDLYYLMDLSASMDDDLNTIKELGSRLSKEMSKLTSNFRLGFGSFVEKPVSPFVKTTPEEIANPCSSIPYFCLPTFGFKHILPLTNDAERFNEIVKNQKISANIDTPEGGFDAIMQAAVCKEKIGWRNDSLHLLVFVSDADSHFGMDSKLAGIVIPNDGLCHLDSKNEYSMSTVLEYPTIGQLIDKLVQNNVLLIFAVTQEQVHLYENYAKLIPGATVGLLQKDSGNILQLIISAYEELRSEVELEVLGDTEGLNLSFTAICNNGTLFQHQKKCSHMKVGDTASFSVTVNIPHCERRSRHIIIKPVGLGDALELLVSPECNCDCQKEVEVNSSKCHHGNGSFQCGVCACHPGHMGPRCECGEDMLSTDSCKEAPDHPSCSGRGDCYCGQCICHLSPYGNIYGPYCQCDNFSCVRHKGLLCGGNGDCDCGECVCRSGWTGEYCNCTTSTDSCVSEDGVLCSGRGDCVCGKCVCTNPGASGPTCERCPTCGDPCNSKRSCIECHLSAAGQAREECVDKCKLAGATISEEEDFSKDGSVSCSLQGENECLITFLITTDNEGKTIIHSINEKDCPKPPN
Procedure: E. Solid Phase Receptor Assay (SPRA) for αVβ6 Function
as §1, with “150 μL TBS+, and then” for “150 μL TBS+ and then”, “at 37° C., and then” for “at 37° C. and then”, “well, 50 μL of biotinylated” for “well, 50 μl of biotinylated”, “TBS+/0.1% BSA were added” for “TBS+/0.1% BSA at 0.5 μg/mL were added”, “the plate was covered and” for “the plate covered and”, “incubated for 10 min at” for “incubated for 5 min at”

[3] = target: T3, Recombinant human integrin α5β1 (Homo sapiens, UniProt P05556+P08648); assay: Solid Phase Receptor Assay (SPRA) for α5β1 function; conditions: plate-bound human fibronectin
T3 construct: purchased R&D Systems 3230-A5
T3 sequence (P08648 42-995 limits assumed): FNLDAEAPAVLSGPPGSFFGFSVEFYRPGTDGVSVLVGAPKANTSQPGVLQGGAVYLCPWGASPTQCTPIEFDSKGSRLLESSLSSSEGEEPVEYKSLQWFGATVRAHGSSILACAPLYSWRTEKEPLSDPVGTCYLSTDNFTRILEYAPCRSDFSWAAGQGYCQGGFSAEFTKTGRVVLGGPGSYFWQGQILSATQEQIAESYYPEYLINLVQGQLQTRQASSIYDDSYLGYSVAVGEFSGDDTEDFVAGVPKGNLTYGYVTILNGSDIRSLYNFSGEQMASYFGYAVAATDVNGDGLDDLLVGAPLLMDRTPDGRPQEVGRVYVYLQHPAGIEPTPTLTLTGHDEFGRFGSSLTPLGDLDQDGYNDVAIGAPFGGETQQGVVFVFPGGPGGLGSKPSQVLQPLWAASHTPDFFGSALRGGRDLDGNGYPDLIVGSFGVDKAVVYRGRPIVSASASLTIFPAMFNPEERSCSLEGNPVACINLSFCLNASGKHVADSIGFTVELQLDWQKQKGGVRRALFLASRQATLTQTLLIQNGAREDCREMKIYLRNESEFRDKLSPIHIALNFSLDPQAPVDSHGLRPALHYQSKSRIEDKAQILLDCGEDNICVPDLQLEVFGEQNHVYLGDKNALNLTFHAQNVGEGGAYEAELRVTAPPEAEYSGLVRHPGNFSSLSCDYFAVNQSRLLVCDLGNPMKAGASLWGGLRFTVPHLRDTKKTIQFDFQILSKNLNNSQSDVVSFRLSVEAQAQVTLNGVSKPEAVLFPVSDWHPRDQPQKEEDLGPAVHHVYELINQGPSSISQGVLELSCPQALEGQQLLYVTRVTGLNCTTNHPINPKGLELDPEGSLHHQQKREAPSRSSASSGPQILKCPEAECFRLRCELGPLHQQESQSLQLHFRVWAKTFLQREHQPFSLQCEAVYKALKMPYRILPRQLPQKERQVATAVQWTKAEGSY
T3 sequence (P05556 21-728 limits assumed): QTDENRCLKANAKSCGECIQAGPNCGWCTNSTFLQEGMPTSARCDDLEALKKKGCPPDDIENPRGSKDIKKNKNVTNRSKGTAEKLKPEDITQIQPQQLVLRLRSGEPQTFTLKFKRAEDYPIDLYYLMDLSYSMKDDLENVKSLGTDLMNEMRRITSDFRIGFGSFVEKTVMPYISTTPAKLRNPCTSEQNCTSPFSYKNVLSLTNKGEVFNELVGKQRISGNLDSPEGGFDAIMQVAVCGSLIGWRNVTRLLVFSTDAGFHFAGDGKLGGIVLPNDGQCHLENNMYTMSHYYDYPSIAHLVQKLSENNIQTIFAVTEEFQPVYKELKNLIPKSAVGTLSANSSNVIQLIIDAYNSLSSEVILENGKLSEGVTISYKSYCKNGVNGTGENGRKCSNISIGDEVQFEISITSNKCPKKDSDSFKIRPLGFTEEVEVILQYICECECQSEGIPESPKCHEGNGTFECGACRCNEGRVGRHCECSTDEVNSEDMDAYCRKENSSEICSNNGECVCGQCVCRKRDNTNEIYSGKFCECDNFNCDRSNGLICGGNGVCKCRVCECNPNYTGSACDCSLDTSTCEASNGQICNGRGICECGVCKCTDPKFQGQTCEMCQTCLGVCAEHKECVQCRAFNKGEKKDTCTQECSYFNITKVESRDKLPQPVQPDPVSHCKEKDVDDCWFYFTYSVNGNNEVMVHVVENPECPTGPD
Procedure: A. Solid Phase Receptor Assay (SPRA) for α5β1 Function
Wells were washed 3 times with 150 μL TBS+ and then 150 μL of blocking buffer (TBS+ with 1% bovine serum albumin, Sigma A7906) was added. The plate was incubated for 1 hr at 37° C. and then washed 3× with TBS+ buffer. […] Compounds were diluted to 20 μM and then 1 μL was added to each well of the plate according to a standard template with each sample repeated in triplicate. After incubation for two hours at room temperature, the plate was washed 3× with 150 μL of TBS+ buffer. To each well, 50 μL of biotinylated anti-α5 antibody (R&D Systems, BAF1864) at 0.5 μg/mL in TBS+/0.1% BSA were added and the plate covered and incubated for 1 hr at room temperature. After washing the plate 3× with 150 μL of TBS+ buffer, 50 μL of streptavidin-conjugated horseradish peroxidase (R&D Systems, DY998) diluted in TBS+ blocking buffer were added to the wells and the plate incubated for 20 min at room temperature. The plate was washed 3× with TBS+ buffer followed by 50 μL of room temperature TMB substrate (Sigma, T4444) added to each well in the dark and the plate incubated for 25 min at room temperature. 25 μL of 1.0 M phosphoric acid was added as a stop solution and the plates were read at 450 nm using a Spectramax plate reader.

[4] = target: T4, Recombinant human integrin αvβ1 (Homo sapiens, UniProt P05556+P06756); assay: Solid Phase Receptor Assay (SPRA) for αVβ1 function; conditions: plate-bound human fibronectin
T4 construct: purchased R&D Systems 6579-AV
T4 sequence (P06756 31-992 limits assumed): as the sequence (P06756 31-992 limits assumed) above
T4 sequence (P05556 21-728 limits assumed): as the sequence (P05556 21-728 limits assumed) above
Procedure: B. Solid Phase Receptor Assay (SPRA) for αVβ1 Function
as §1, with “μM and 1 μL” for “μM and then 1 μL”, “well, 50 μL of biotinylated” for “well, 50 μl of biotinylated”, “BAF1219) at 1 μg/mL in” for “BAF1219) at 0.5 μg/mL in”, “TBS+/0.1% BSA were added” for “TBS+/0.1% BSA at 0.5 μg/mL were added”, “TMB substrate (Sigma, T4444) added” for “TMB substrate (Sigma T4444) added”, “incubated for 25 min at” for “incubated for 5 min at”

T1 sequence (P06756 31-992 limits assumed): as the sequence (P06756 31-992 limits assumed) above
T1 sequence (P18084 24-719 limits assumed): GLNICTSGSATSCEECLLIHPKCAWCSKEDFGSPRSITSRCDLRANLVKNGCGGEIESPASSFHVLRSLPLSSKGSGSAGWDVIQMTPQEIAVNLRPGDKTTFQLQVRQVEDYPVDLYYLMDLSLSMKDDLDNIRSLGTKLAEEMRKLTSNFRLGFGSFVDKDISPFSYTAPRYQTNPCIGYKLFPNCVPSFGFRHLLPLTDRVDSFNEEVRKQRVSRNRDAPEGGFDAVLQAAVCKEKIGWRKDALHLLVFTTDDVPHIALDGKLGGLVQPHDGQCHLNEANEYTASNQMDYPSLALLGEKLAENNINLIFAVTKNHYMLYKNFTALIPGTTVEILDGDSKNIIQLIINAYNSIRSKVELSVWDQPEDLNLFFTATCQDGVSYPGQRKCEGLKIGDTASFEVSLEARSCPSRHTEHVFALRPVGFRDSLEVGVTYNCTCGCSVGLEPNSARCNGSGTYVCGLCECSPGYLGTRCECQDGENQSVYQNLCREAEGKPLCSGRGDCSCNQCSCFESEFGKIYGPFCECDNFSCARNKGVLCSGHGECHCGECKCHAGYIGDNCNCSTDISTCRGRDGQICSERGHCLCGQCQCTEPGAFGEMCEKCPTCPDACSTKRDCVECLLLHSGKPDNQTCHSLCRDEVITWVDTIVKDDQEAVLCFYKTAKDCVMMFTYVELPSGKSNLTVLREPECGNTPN

Structure (SMILES)	IC50 [1] [nM]	IC50 [2] [nM]	IC50 [3] [nM]	IC50 [4] [nM]
COc1ccc(S(F)(F)(F)(F)F)cc1C(CC(=O)O)Cc1cc(OCCc2ccc3c(n2)NCCC3)n(C)n1 (stereo not drawn) [Example 24, 3-[2-methoxy-5-(pentafluoro-sulfanyl)phenyl]-4-[1-methyl-5-[2-(5,6,7,8-tetrahydro-1,8-naphthyridin-2-yl)ethoxy]pyrazol-3-yl]butanoic acid]	96	48	25	9
COc1c(C(C)C)cc(C(CC(=O)O)Cc2cc(OCCc3ccc4c(n3)NCCC4)n(C)n2)cc1C(C)C (stereo not drawn) [Example 25, 3-(3,5-diisopropyl-4-methoxy-phenyl)-4-[1-methyl-5-[2-(5,6,7,8-tetrahydro-1,8-naphthyridin-2-yl)ethoxy]pyrazol-3-yl]butanoic acid]	78	160	2	6
COc1c(C(C)C)cc(C(CC(=O)O)Cc2csc(CCCc3ccc4c(n3)NCCC4)n2)cc1C(C)C (stereo not drawn) [Example 26, 3-(3,5-diisopropyl-4-methoxy-phenyl)-4-[2-[3-(5,6,7,8-tetrahydro-1,8-naphthyridin-2-yl)propyl]thiazol-4-yl]butanoic acid]	610	330	61	8
CC(C)(C)c1cc(C(CC(=O)O)Cc2csc(CCCc3ccc4c(n3)NCCC4)n2)cc(C(C)(C)C)c1 (stereo not drawn) [Example 27, 3-(3,5-di-tert-butylphenyl)-4-(2-(3-(5,6,7,8-tetrahydro-1,8-naphthyridin-2-yl)propyl)thiazol-4-yl)butanoic acid]	1100	1000	43	11
COc1ccc(C(C)(C)C)cc1C(CC(=O)O)Cc1csc(CCCc2ccc3c(n2)NCCC3)n1 (stereo not drawn) [Example 28, 3-(5-(tert-butyl)-2-methoxyphenyl)-4-(2-(3-(5,6,7,8-tetrahydro-1,8-naphthyridin-2-yl)propyl)thiazol-4-yl)butanoic acid]	440	310	25	6
COc1c(C(C)(C)C)cc(C(CC(=O)O)Cc2csc(CCCc3ccc4c(n3)NCCC4)n2)cc1C(C)(C)C (stereo not drawn) [Example 29, 3-(3,5-di-tert-butyl-4-methoxyphenyl)-4-(2-(3-(5,6,7,8-tetrahydro-1,8-naphthyridin-2-yl)propyl)thiazol-4-yl)butanoic acid]	800	450	40	7
CC(C)(C)c1cc(C(CC(=O)O)Cc2csc(CCCc3ccc4c(n3)NCCC4)n2)cc(C2(C(F)F)CC2)c1 (stereo not drawn) [Example 30, 3-[3-tert-butyl-5-[1-(difluoromethyl)cyclopropyl]phenyl]-4-[2-[3-(5,6,7,8-tetrahydro-1,8-naphthyridin-2-yl)propyl]thiazol-4-yl]butanoic acid]	260	270	30	5
CC(C)(C)c1cc(C(CC(=O)O)Cc2csc(CCCc3ccc4c(n3)NCCC4)n2)cc(C(C)(C)C(F)(F)F)c1 (stereo not drawn) [Example 31, 3-[3-tert-butyl-5-(2,2,2-trifluoro-1,1-dimethyl-ethyl)phenyl]-4-[2-[3-(5,6,7,8-tetrahydro-1,8-naphthyridin-2-yl)propyl]thiazol-4-yl]butanoic acid]	1500	1700	66	8
COCC1(c2cc(C(CC(=O)O)Cc3csc(CCCc4ccc5c(n4)NCCC5)n3)cc(C(C)(C)C)c2)CCOCC1 (stereo not drawn) [Example 32, 3-[3-tert-butyl-5-[4-(methoxymethyl)tetrahydropyran-4-yl]phenyl]-4-[2-[3-(5,6,7,8-tetrahydro-1,8-naphthyridin-2-yl)propyl]thiazol-4-yl]butanoic acid]	240	130	37	7
CC(C)(C)c1ccc(C#N)c(C(CC(=O)O)Cc2csc(CCCc3ccc4c(n3)NCCC4)n2)c1 (stereo not drawn) [Example 33, 3-(5-tert-butyl-2-cyano-phenyl)-4-[2-[3-(5,6,7,8-tetrahydro-1,8-naphthyridin-2-yl)propyl]thiazol-4-yl]butanoic acid]	32	150	0.7	2
CC(C)(C)c1ccc(Br)c(C(CC(=O)O)Cc2csc(CCCc3ccc4c(n3)NCCC4)n2)c1 (stereo not drawn) [Example 34]	360	3400	69	4
COc1ccc(C(F)(F)F)cc1C(CC(=O)O)Cc1csc(CCCc2ccc3c(n2)NCCC3)n1 (stereo not drawn) [Example 35, 3-[2-methoxy-5-(trifluoromethyl)phenyl]-4-[2-[3-(5,6,7,8-tetrahydro-1,8-naphthyridin-2-yl)propyl]thiazol-4-yl]butanoic acid]	69	200	88	5
COc1ccc(C2(C(F)F)CC2)cc1C(CC(=O)O)Cc1csc(CCCc2ccc3c(n2)NCCC3)n1 (stereo not drawn) [Example 36, 3-(5-(1-(difluoromethyl)cyclopropyl)-2-methoxyphenyl)-4-(2-(3-(5,6,7,8-tetrahydro-1,8-naphthyridin-2-yl)propyl)thiazol-4-yl)butanoic acid]	150	120	7	2
COc1ccc(C2=CCOCC2)cc1C(CC(=O)O)Cc1csc(CCCc2ccc3c(n2)NCCC3)n1 (stereo not drawn) [Example 37, 3-[5-(3,6-dihydro-2H-pyran-4-yl)-2-methoxy-phenyl]-4-[2-[3-(5,6,7,8-tetrahydro-1,8-naphthyridin-2-yl)propyl]thiazol-4-yl]butanoic acid]	37	81	25	3
COc1ccc(C2=CCOCC2)cc1[C@H](CC(=O)O)Cc1csc(CCCc2ccc3c(n2)NCCC3)n1 [Example 37A, (S)-3-(5-(3,6-dihydro-2H-pyran-4-yl)-2-methoxyphenyl)-4-(2-(3-(5,6,7,8-tetrahydro-1,8-naphthyridin-2-yl)propyl)thiazol-4-yl)butanoic acid trifluoroacetate]	31	31	17	0.9
